Measured values reported in patent US6083941A, “Inhibition of NMDA receptor activity by pregnenolone sulfate derivatives” (Trustees of Boston University, priority 1998, dated 2000).
Where a name gives a salt, the structure may show the parent alone.

What was measured:
[1] = tested on: mice; assay: Behavioral observational assessment after i.p. steroid; format: in vivo; settings: 25 mg/kg i.p.; for behavioral assessment: 30 min. after injection
Experimental: To test for behavioral effects, PS, 5β3αS, 5β3αHS, βE2 (17)HS, or βE2 (3)HS (7 mg/ml in DMSO) was administered to mice i.p. at 25 mg/kg (5 animals per drug group). Behavioral assessments were made 30 min. after injection using a comprehensive observational assessment of motor-affective responses, sensory-motor responses, posture, muscle tone, equilibration, CNS excitation, and autonomic function (Irwin, R. P., et al., NeuroSci. Lett., 141:30-44 (1968)). […] The latency to loss of righting reflex was 2.5±0.5 min., and the latency to regain the righting reflex was 83±11 min. The rapidity of onset argues that 5β3αHS readily crosses the blood brain barrier.

[2] = tested on: NMDA-induced convulsion and mortality in mice; assay: NMDA-induced convulsion test (200 mg/kg NMDA); format: in vivo
Experimental: Male CD-1 mice (Charles River Laboratories, Wilmington, Mass.) weighing 20-25 g were used for the NMDA-induced convulsion test. Mice were injected intraperitoneally with the test compound dissolved in DMSO or with vehicle. NMDA (200 mg/kg, i.p.) was injected either 2 minutes after intravenous injection of test compound or 20 minutes after intraperitoneal injection of test compound.

[3] = biological target: T1, recombinant NMDA receptors (NR1100 and NR2A subunits) (Rattus norvegicus, UniProt P35439+Q00959); assay: Two electrode voltage-clamp of Xenopus oocytes expressing recombinant NMDA receptors; format: cell-based
T1 construct: expressed in transfected cells; host or cells: Xenopus laevis oocytes injected with in vitro transcribed mRNA
T1 sequence (Q00959 23-1464, other chains not shown): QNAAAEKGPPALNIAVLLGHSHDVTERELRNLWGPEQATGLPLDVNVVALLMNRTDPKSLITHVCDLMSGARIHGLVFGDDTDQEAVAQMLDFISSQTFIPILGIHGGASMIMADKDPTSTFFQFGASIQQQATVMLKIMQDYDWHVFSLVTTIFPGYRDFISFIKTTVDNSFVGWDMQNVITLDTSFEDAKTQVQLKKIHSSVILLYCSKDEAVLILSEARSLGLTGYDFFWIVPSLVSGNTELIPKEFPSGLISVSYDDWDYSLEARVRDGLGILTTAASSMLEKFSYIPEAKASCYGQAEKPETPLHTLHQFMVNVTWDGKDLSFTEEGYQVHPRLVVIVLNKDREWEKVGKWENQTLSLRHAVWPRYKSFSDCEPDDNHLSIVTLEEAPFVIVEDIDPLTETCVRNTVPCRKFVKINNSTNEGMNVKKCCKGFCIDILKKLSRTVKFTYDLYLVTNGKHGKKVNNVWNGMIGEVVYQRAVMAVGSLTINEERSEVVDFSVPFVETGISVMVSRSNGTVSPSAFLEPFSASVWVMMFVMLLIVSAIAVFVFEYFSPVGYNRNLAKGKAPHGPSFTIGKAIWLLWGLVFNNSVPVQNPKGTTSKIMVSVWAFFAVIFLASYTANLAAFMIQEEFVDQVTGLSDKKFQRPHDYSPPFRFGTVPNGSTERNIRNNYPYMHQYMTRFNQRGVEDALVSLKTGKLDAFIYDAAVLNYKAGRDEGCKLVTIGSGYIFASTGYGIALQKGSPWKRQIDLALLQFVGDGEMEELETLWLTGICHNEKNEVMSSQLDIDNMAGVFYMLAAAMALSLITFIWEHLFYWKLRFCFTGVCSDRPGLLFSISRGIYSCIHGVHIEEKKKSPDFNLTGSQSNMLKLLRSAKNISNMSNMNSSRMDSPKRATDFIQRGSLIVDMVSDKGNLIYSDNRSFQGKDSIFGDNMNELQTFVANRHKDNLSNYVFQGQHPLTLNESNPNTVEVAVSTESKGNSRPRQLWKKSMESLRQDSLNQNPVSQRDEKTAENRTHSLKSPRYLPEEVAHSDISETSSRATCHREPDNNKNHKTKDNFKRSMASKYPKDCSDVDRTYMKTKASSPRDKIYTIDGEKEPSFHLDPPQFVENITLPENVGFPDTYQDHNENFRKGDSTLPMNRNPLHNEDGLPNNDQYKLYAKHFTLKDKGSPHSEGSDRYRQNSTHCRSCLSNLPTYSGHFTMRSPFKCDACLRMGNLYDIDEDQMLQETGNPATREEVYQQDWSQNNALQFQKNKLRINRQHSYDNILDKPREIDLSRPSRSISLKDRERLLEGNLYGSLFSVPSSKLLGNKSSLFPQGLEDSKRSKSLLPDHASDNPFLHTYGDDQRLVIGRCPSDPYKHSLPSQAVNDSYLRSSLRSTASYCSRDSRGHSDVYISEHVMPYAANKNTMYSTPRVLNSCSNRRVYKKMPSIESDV
Experimental: RNA preparation. mRNA were prepared through in vitro transcription of NR1100 and NR2A cDNAs using the mMessage mMachine kit (Ambion, Tex.). NR1100 and NR2A clones were kindly provided by Dr. Zukin and Dr. Nakanishie.
Xenopus expression system. Female, oocyte positive Xenopus laevis frogs were purchased from Nasco, Inc. (WI). The frogs were kept on a 12/12 light-dark cycle and maintained on a diet of chopped calf liver every 3 days. Prior to surgery, frogs were anesthetized in a 0.15% Tricaine solution (Sigma, Mo.) for 30-45 minutes. Ovarian sections containing the follicular oocytes were removed through a lateral abdominal incision and were immediately placed in calcium-free ND96 solution (in mM):96 NaCl; 1 MgCl2; 2 KCl; 5 Hepes; 2.5 pyruvate (pH adjusted to 7.4 with NaOH). Following a 2 hr. incubation in 0.2% collagenase type II (Sigma, Mo.) at room temperature, individual defolliculated oocytes were transferred into 60×15 mm glass petri dishes containing ND96 solution (in mM): 96 NaCl; 1 MgCl2; 2 KCl; 1.8 CaCl2; 5 Hepes; 2.5 pyruvate (pH adjusted to 7.4 with NaOH). The isolated oocytes were maintained in an incubator at 18° C. On the following date, batches of 20-40 selected oocytes (Dumont stage V and VI) were injected with 50 nl of prepared RNA solution (0.5 ng of NR1 and 12 ng of NR2A mRNAs per oocyte) using an electronic microinjector (Drummond, Pa.). The injected oocytes were used for electrophysiological experiments following 4-10 day incubation at 18° C.
Electrical recording and drug application. The ion current recordings were obtained in two electrodes voltage-clamp mode using an Axoclamp-2A amplifier (Axon Instruments, Inc., CA). The microelectrodes were fabricated with a programmed puller (Sutter Instrument Co., CA) from glass capillaries (Dagan, Minn.) and filled with 3M KCl solution. The resistance of filled microelectrodes was in the range of 2.5-3.5 M.OMEGA.. The oocytes were clamped at a holding potential of -70 mV. The membrane current was filtered at 500 Hz and sampled at 100 Hz frequency. The drugs were applied using a gravity driven external perfusion system. The data acquisition and external perfusion control were done using SuperScopeII software package (GW Instruments, MA). All experiments were performed at room temperature of 22-24° C.
The degree of modulation of the amino acid response by steroids, the percent change, was defined at (I'/I-1)×100%, where I and I' are respectively the agonist-induced currents in the absence and presence of steroid. Throughout, results are expressed as mean±SEM; statistical comparison of groups was carried out using Student's t test.

[4] = mice, i.p., high dose, time limit 30 min

## CC(=O)[C@H]1CC[C@H]2[C@@H]3CC[C@@H]4C[C@H](OC(=O)CCC(=O)O)CC[C@]4(C)[C@H]3CC[C@]12C [5β3αHS, 3α-hydroxy-5β-pregnan-20-one hemisuccinate]
[1]
  latency to loss of righting reflex: 2.5 ± 0.5 min
  latency to regain the righting reflex: 83 ± 11 min
  behavioral assessment: lost virtually all muscle tone
[2]; mice, i.p., FIG. 7
  mortality induced by 200 mg/kg of NMDA: dose-dependently inhibited mortality
  tonic seizures induced by 200 mg/kg of NMDA: dose-dependently inhibited tonic seizures
[2]; [4]
  mortality induced by NMDA at the high dose: completely block the mortality
  tonic seizures induced by NMDA at the high dose: completely block the seizures

## CC(=O)[C@H]1CC[C@H]2[C@@H]3CC[C@@H]4C[C@H](OS(=O)(=O)O)CC[C@]4(C)[C@H]3CC[C@]12C [5β3αS, 3α-hydroxy-5β-pregnan-20-one sulfate]
[1]
  behavioral assessment: very minor behavioral impairment
[2]; mice, i.v. administration, FIG. 8
  seizures and mortality induced by NMDA: effective in blocking seizures and mortality
[2]; printed:
  latency to onset of seizures: increases the latency to onset of seizures
[2]; printed: rats following i.v. injection of 200 mg/kg NMDA
  mortality: decreases mortality
[3]
  effect on NMDA responses of NR1100/NR2A injected oocytes: had an inhibitory effect

## CC(=O)C1CCC2C3CC=C4CC(OS(=O)(=O)O)CCC4(C)C3CCC12C (centres unmarked) [PS, pregnenolone sulfate]
[1]
  behavioral assessment: unaffected except for a single decreased score on locomotor activity
[3]; 100 μM steroid, read-out: potentiation of a near maximal NMDA response (200 μM)
  activation at 100 µM: 292 ± 34%
